Source: patent publication US20210292851A1, “METHOD OF MONITORING EFFECTIVENESS OF IMMUNOTHERAPY OF CANCER PATIENTS” (Roche Sequencing Solutions, Inc., priority 2018, published 2021)

What was measured:
advanced NSCLC patients = experiment: Phase 3 randomized trial, Atezolizumab vs docetaxel in second line advanced NSCLC: progression-free survival by baseline ctDNA mutation metric; type: in vivo, human; details: for Events/Total number of patients: PFS events
Source text: In a Phase 3, open-label, multicenter randomized controlled trial, NSCLC patients received either Atezolizumab or docetaxel in a second line setting of advanced NSCLC. Blood plasma samples were obtained from 102 patients prior to start of second line therapy. The AVENIO® ctDNA kit, Surveillance Panel (Roche Sequencing Solutions, Pleasanton, Calif.) was used to assess the number of mutations in patient samples. Cell-free DNA (cfDNA) from the patients was isolated and analyzed according to the manufacturer's instructions of the AVENIO® ctDNA Kit. The metrics assessed included the numbers of variants and maximum allele frequency (MaxAF, the highest allele frequency of a single mutation among all mutations detected within a single sample).
The “number of mutations” metric was assessed on the population level and patients were assessed for progression-free survival (PFS) and overall survival (OS). (FIGS. 1 and 2, Tables 2 and 3) Using median or 75th percentile cut-off, patients treated with Atezolizumab and with number of mutations greater or equal median or 75th percentile have longer progression survival compared to that of chemotherapy, with a HR of 0.67 or 0.49, respectively. Meanwhile, Atezolizumab didn't show more benefit vs chemotherapy in patients with number of mutations fewer than the median or 75th percentile. The HR is 1.12 and 1.05 for <median or <75 percentile, respectively.
The MaxAF detected in the blood samples was also used to assess its relationship with progression free survival and overall survival. Using median cut-off, patients with MaxAF greater than the median have longer progression free survival when treated with Atezolizumab compared to chemotherapy, with a HR of 0.56 (FIG. 3, Table 4). In patients with MaxAF lesser the median, no benefit was observed on treatment with Atezolizumab vs chemotherapy (HR of 1.45).

NSCLC patients [1] = experiment: Same Phase 3 trial with serial ctDNA monitoring: overall survival by maxMMPM at C3D1; type: in vivo, human
Protocol: In this example, the patients' samples from the same Phase 3 trial as described in Example 1 were collected processed an analyzed essentially as described in Example 1. However, the samples were collected serially during the administration of therapy.
Multiple metrics of circulating tumor DNA (ctDNA) were assessed for association with OS.
Plasma from 94 patients taken at baseline and at subsequent cycles of therapy every three weeks (C2D1, C3D1, and C4D1) were analyzed retrospectively for ctDNA with the AVENIO ctDNA Surveillance Kit (Roche Sequencing Solutions, Pleasanton, Calif.) Mutations detected in matched PBMC DNA were excluded in correlation analyses with clinical outcomes. ctDNA was measured by allele frequency (AF) or mutant molecules per milliliter (MMPM), and summarized across multiple mutations within a sample by median, mean or maximum. Concordance between these per-sample metrics and PFS/OS were assessed using C index, which is equivalent to AUC under a Receiver Operating Characteristic (ROC) curve.
Specifically, samples were collected and assessed at drug administration cycle 1, 2, or 3 or 4 taken in each case, on day 1 (C1D1, C2D1, C3D1, and C4D1). […] Using the max MMPM at C3D1, the patients were dichotomized at a median for the entire cohort of 8.75 maximal MMPM. […] In the docetaxel arm, the 1-year survival rate among MMPM low vs MMPM high patients was 0.7 vs 0.07. Because mutation metrics obtained from overall ctDNA levels were associated with OS in metastatic NSCLC, ctDNA is a promising non-invasive blood based biomarker in the metastatic setting of NSCLC.

NSCLC patients [2] = details: ≥2L NSCLC patients; previously demonstrated by the study; cited from earlier work
[3] = number of detected variants <75th percentile (<12)
[4] = number of detected variants <Median (<6.5)
[5] = number of detected variants ≥75th percentile (≥12)
[6] = number of detected variants ≥Median (≥6.5)
[7] = patients with MaxAF <Median (<44.58) at baseline
[8] = patients with MaxAF ≥Median (≥44.58) at baseline
[9] = patients with number of detected variants <75th percentile (<12) at baseline
[10] = patients with number of detected variants <Median (<6.5) at baseline
[11] = patients with number of detected variants ≥75th percentile (≥12) at baseline
[12] = patients with number of detected variants ≥Median (≥6.5) at baseline
[13] = MMPM high patients (max MMPM at C3D1, dichotomized at median 8.75)
[14] = MMPM low patients (max MMPM at C3D1, dichotomized at median 8.75)

Row | Compound | Events/Total number of patients (advanced NSCLC patients; MaxAF <Median (<44.58)) | Events/Total number of patients (advanced NSCLC patients; MaxAF ≥Median (≥44.58)) | Events/Total number of patients (advanced NSCLC patients; [3]) | Events/Total number of patients (advanced NSCLC patients; [4]) | Events/Total number of patients (advanced NSCLC patients; [5]) | Events/Total number of patients (advanced NSCLC patients; [6]) | Median Progression Free Survival (advanced NSCLC patients; [7]) | Median Progression Free Survival (advanced NSCLC patients; [8]) | Median Progression Free Survival (advanced NSCLC patients; [9]) | Median Progression Free Survival (advanced NSCLC patients; [10]) | Median Progression Free Survival (advanced NSCLC patients; [11]) | Median Progression Free Survival (advanced NSCLC patients; [12]) | 1-year survival rate (OS) (NSCLC patients [1]; [13]) | 1-year survival rate (OS) (NSCLC patients [1]; [14]) | further results
1 | CC(=O)O[C@@]12CO[C@@H]1C[C@H](O)[C@@]1(C)C(=O)[C@H](O)C3=C(C)[C@@H](OC(=O)[C@H](O)[C@@H](NC(=O)OC(C)(C)C)c4ccccc4)C[C@@](O)([C@@H](OC(=O)c4ccccc4)[C@H]21)C3(C)C [Docetaxel, docetaxel] | 27/28 | 23/23 | 37/37 | 27/27 | 13/14 | 23/24 | 4.09 | 3.09 | 4.07 | 3.98 | 2.41 | 2.94 | 0.07 | 0.7 | –
2 | atezolizumab | 22/23 | 24/28 | 35/38 | 23/24 | 11/13 | 23/27 | 2.6 | 4.99 | 2.71 | 2.74 | 5.85 | 2.79 | 0.43 | 0.81 | Hazard Ratio (HR), progression free survival, Atezolizumab vs docetaxel (advanced NSCLC patients; MaxAF <Median (<44.58)): 1.45; Hazard Ratio (HR), progression free survival, Atezolizumab vs docetaxel (advanced NSCLC patients; MaxAF ≥Median (≥44.58)): 0.56; Hazard Ratio (HR), progression free survival, Atezolizumab vs docetaxel (advanced NSCLC patients; [3]): 1.05; Hazard Ratio (HR), progression free survival, Atezolizumab vs docetaxel (advanced NSCLC patients; [4]): 1.12; Hazard Ratio (HR), progression free survival, Atezolizumab vs docetaxel (advanced NSCLC patients; [5]): 0.49; Hazard Ratio (HR), progression free survival, Atezolizumab vs docetaxel (advanced NSCLC patients; [6]): 0.67; OS benefit, atezolizumab vs docetaxel (NSCLC patients [2]): clinically significant OS benefit
